{"source": "paper PMC12970513", "about": "“Unsaturated Phosphorus Electrophiles to Probe Protein Tyrosine Phosphatases” (Angewandte Chemie (International Ed. in English), 2026)", "key": {"[1]": {"test": "Stability of bio-PN and bio-PO in HEK293T cell lysate by 31P NMR", "assay_type": "in vitro ADME, human", "conditions": "HEK293T lysate (1 mg/mL), 1 mM peptide, room temperature", "experimental": "Next, we assessed the stability of the phosphonamidic and phosphonic acid in aqueous buffers at pH 2, pH 3.5, pH 7.4, pH 8.5, and pH 11. Therefore, SM‐PN and SM‐PO were added in the corresponding buffers and monitored for 48 h at room temperature via ^31P‐NMR with triphenylphosphinoxide (TPPO) as an internal standard (Figure S2). […] Furthermore, we evaluated the stability of the peptide probes bio‐PN and bio‐PO in human lysate for subsequent experiments. These peptides were added in HEK293T cell lysate, and changes in stability were recorded for 18 h via ^31P‐NMR, in which inorganic phosphate served as an internal standard. […] Nonetheless, both peptides display sufficient stability for follow‐up studies.\nA solution of 480 µL of HEK293T cell lysate (1 mg/mL) was supplemented with 60 µL of D2O. To this, 60 µL of bio-PN or bio-PO (10 mM stock in DMSO, final concentration 1 mM) were added right before the start of the measurement. The mixtures were transferred to NMR tubes and one-dimensional ^31P-NMR spectra were recorded for each sample at room temperature, in intervals of 2.5 h over the course of 18 h on a Bruker AV-III 600 spectrometer. For analysis, the spectra were Fourier-transformed, baseline corrected and the intensity of the ^31P-NMR signal was obtained by integration."}, "[2]": {"test": "Lysate labeling by fluorescence gel scanning, HEK293T", "design": "species or system human", "conditions": "HEK293T lysate 2 mg/mL, 50 mM sodium succinate pH 6.0, 150 mM NaCl, 1 mM EDTA, 1 mM DTT, 1 h, R.T.", "description": "Having identified suitable conditions, we aimed to compare our target‐specific peptide PO‐probe with a broad reactivity PTP probe in order to visualize the different reactivity patterns in human lysate. […] Using the previously reported buffer conditions, HEK293T cell lysate (50 mM sodium succinate, pH 6.0, 150 mM NaCl, 1 mM EDTA, 1 mM DTT) was incubated for 1 h with TMR‐BBP (100 µM).\nFor fluorescence gel scanning of TMR labeled probes samples resolved by SDS-PAGE and first visualized at a Bio-Rad imaging system equipped with a 532 nm laser for excitation. Afterwards, wherever applicable gels were stained with Coomassie brilliant blue.\nFor the comparison of the labeling pattern between TMR-PO and a general phosphatase probe (TMR-BBP) freshly lysed HEK293T cell lysate was adjusted to 2 mg/mL. […] For labeling with TMR-BBP cells were lysed in 50 mM sodium succinate buffer pH 6.0, 150 mM NaCl, 1 mM EDTA, and 1 mM DTT as previously reported.^[3] […] The reactions were incubated for 1 hour at room temperature and subsequently analyzed by fluorescence gel scanning.\nA volume of 49 µL of each lysate was mixed with 1 µL of a 5 mM TMR-PO stock solution in DMSO and incubated for 1 hour at room temperature. Samples were resolved by SDS-PAGE and analyzed by fluorescence gel scanning."}}, "note": "*1 amine or outer side, *2 acyl side, *3 side chain or, on linkers, in order; H or OH if unused. Where a SMILES comes first, the peptide text is derived from it. [ ]: non-standard residue; d: D form. The star is where a group is joined. X1 = C#CP(=O)(O)Oc1ccc(C[C@H](N[*:1])C(=O)[*:2])cc1; X2 = C#CP(=O)(O)Nc1ccc(C[C@H](N[*:1])C(=O)[*:2])cc1; Biotin = O=C1N[C@H]2[C@H](CS[C@H]2CCCCC(=O)*)N1", "data": [{"compound": "C#CP(=O)(O)Nc1ccc(C[C@H](NC(=O)[C@H](CCC(=O)O)NC(=O)[C@H](CC(=O)O)NC(=O)[C@H](C)NC(=O)[C@H](CC(=O)O)NC(=O)CCCC[C@@H]2SC[C@@H]3NC(=O)N[C@@H]32)C(=O)N[C@@H](CC(C)C)C(=O)N[C@H](C(=O)N2CCC[C@H]2C(=O)N[C@@H](CCC(N)=O)C(=O)N[C@@H](CCC(N)=O)C(=O)NCC(N)=O)[C@@H](C)CC)cc1", "note": "[bio-PN] (Biotin-DADE[X2]LIPQQG-NH2)", "values": [{"measurement": "remaining at 18 h, 1 mM", "setting": "[1]; human, HEK293T cell lysate, inorganic phosphate internal standard, read-out: remaining intact in HEK293T cell lysate", "value": 80, "unit": "%"}, {"measurement": "metabolised at 18 h, 1 mM", "setting": "[1]; human, HEK293T cell lysate, read-out: decay in HEK293T cell lysate", "value": 20, "unit": "%"}]}, {"compound": "C#CP(=O)(O)Oc1ccc(C[C@H](NC(=O)[C@H](CCC(=O)O)NC(=O)[C@H](CC(=O)O)NC(=O)[C@H](C)NC(=O)[C@H](CC(=O)O)NC(=O)CCCC[C@@H]2SC[C@@H]3NC(=O)N[C@@H]32)C(=O)N[C@@H](CC(C)C)C(=O)N[C@H](C(=O)N2CCC[C@H]2C(=O)N[C@@H](CCC(N)=O)C(=O)N[C@@H](CCC(N)=O)C(=O)NCC(N)=O)[C@@H](C)CC)cc1", "note": "[bio-PO] (Biotin-DADE[X1]LIPQQG-NH2)", "values": [{"measurement": "decay in HEK293T cell lysate", "setting": "[1]; 18 h", "value": "remains intact"}, {"measurement": "remaining intact in HEK293T cell lysate", "setting": "[1]; 18 h, inorganic phosphate internal standard", "value": "stayed unaltered"}]}, {"compound": "α-bromo(4-((N-5/6-TAMRA-aminomethyl)phenyl)methyl)phosphonic acid [TMR-BBP]", "values": [{"measurement": "labeling pattern in HEK293T lysate (TMR-BBP)", "setting": "[2]", "value": "labeled many proteins across the whole proteome"}]}]}
